From ChEMBL document CHEMBL6177980 (J Med Chem, 2025)
Converted amounts (≈) assume the structure as drawn. The source made the active and inactive calls. The rule behind the calls is not given here.

Legend:
[1] = Prodrug conversion in Sprague-Dawley rat plasma assessed as parent nucleoside metabolite formation at 1 uM measured up to 60 mins by LC-MS/MS analysis; type: ADME, cell-free; conditions: 1 h
[2] = tested on: Mammarenavirus choriomeningitidis; test: In vivo antiviral activity against LCMV infected in C57BL/6-Prf1tm1Sdz/J mouse assessed as appearance of clear boundary between red and white pulp in spleen at 1 to 5 mg/kg, po qd for 7 days; type: functional, organism-based; conditions: dose 1-5 mg/kg, time 7.0 day
[3] = Toxicity in Sprague-Dawley rat assessed as drug tolerance administered as single dose; conditions: in vivo
[4] = AUC (0 to t) in fasted Sprague-Dawley rat at 23 mg/kg, po by LC-MS/MS analysis; type: ADME, organism-based; conditions: in vivo
[5] = Prodrug conversion in Sprague-Dawley rat assessed as Cmax of 4'-Fluorouridine metabolite at 2 mg/kg, po by LC-MS/MS analysis; type: ADME, organism-based; conditions: in vivo
[6] = Prodrug conversion in Beagle dog assessed as AUC (0 to t) of 4'-Fluorouridine metabolite at 10 mg/kg, po by LC-MS/MS analysis; type: ADME, organism-based, Canis lupus familiaris; conditions: in vivo
[7] = Prodrug conversion in Sprague-Dawley rat assessed as Cmax of 4'-Fluorouridine metabolite at 6 mg/kg, po by LC-MS/MS analysis; type: ADME, organism-based; conditions: in vivo
[8] = Stability of compound at pH 1.5 assessed as change in purity at 1 mg/ml incubated for 12 hrs by HPLC analysis; type: physicochemical; conditions: buffer, pH 1.5, 12 h
[9] = Prodrug conversion in C57BL/6J mouse assessed as Cmax of 4'-Fluorouridine metabolite at 6 mg/kg, po by LC-MS/MS analysis; type: ADME, organism-based; conditions: in vivo
[10] = Prodrug conversion in Beagle dog assessed as AUC (0 to t) of 4'-Fluorouridine metabolite at 3 mg/kg, po by LC-MS/MS analysis; type: ADME, organism-based, Canis lupus familiaris; conditions: in vivo
[11] = Prodrug conversion in Beagle dog assessed as Cmax of 4'-Fluorouridine metabolite at 1 mg/kg, po by LC-MS/MS analysis; type: ADME, organism-based, Canis lupus familiaris; conditions: in vivo
[12] = Oral bioavailability in fasted Cynomolgus monkey administered orally by LC-MS/MS analysis; type: ADME, organism-based, Macaca fascicularis; conditions: in vivo
[13] = Stability of compound at pH 6.8 assessed as change in purity at 1 mg/ml incubated for 12 hrs by HPLC analysis; type: physicochemical; conditions: buffer, pH 6.8, 12 h
[14] = Prodrug conversion in Beagle dog liver microsomes assessed as parent nucleoside metabolite formation at 1 uM measured up to 60 mins in presence of BNPP/NADPH/UDPGA by LC-MS/MS analysis; type: ADME, Canis lupus familiaris, Microsome; conditions: 1 h
[15] = Stability of compound at pH 4.0 assessed as change in purity at 1 mg/ml incubated for 24 hrs by HPLC analysis; type: physicochemical; conditions: buffer, pH 4, 24 h
[16] = Stability in Sprague-Dawley rat plasma administered orally or intravenously; type: ADME, cell-free; conditions: po
[17] = Prodrug conversion in C57BL/6J mouse liver microsomes assessed as parent nucleoside metabolite formation at 1 uM measured up to 60 mins in presence of BNPP/NADPH/UDPGA by LC-MS/MS analysis; type: ADME, Microsome; conditions: 1 h
[18] = tested on: Mammarenavirus choriomeningitidis; test: Antiviral activity against LCMV infected in C57BL/6-Prf1tm1Sdz/J mouse assessed as reduction in viral copy number in liver treated orally once daily for 7 days by RT-qPCR analysis; type: functional, organism-based; conditions: dose 1-5 mg/kg, route po, time 7.0 day
[19] = tested on: HepG2; test: Mitochondrial toxicity in human HepG2 cells cultured in galactose containing medium at 100 uM; type: cell-based; conditions: hepg2, 100 µM
[20] = Prodrug conversion in Sprague-Dawley rat assessed as 4'-Fluorouridine-NTP metabolite formation in spleen at 6 mg/kg, po measured for 0.5 to 24 hrs by LC-MS/MS analysis; type: ADME, organism-based; conditions: in vivo, time 0.5-24 hrs
[21] = Prodrug conversion in C57BL/6J mouse assessed as AUC (0 to t) of 4'-Fluorouridine metabolite at 20 mg/kg, po by LC-MS/MS analysis; type: ADME, organism-based; conditions: in vivo
[22] = Prodrug conversion in Beagle dog assessed as AUC (0 to t) of 4'-Fluorouridine metabolite at 1 mg/kg, po by LC-MS/MS analysis; type: ADME, organism-based, Canis lupus familiaris; conditions: in vivo
[23] = tested on: Mammarenavirus choriomeningitidis; test: In vivo antiviral activity against LCMV infected in C57BL/6-Prf1tm1Sdz/J mouse assessed as improvement in splenic tissue lesion at 1 to 5 mg/kg, po qd for 7 days; type: functional, organism-based; conditions: dose 1-5 mg/kg, time 7.0 day
[24] = tested on: Mammarenavirus choriomeningitidis; test: Antiviral activity against LCMV infected in C57BL/6-Prf1tm1Sdz/J mouse assessed as reduction in viral copy number in spleen treated orally once daily for 7 days by RT-qPCR analysis; type: functional, organism-based; conditions: dose 1-5 mg/kg, route po, time 7.0 day
[25] = Prodrug conversion in Sprague-Dawley rat assessed as 4'-Fluorouridine-NTP metabolite formation in thymus at 6 mg/kg, po measured for 0.5 to 24 hrs by LC-MS/MS analysis; type: ADME, organism-based; conditions: in vivo, time 0.5-24 hrs
[26] = tested on: HepG2; test: Mitochondrial toxicity in human HepG2 cells cultured in glucose containing medium at 100 uM; type: cell-based; conditions: hepg2, 100 µM
[27] = Prodrug conversion in Beagle dog assessed as AUC (0 to t) of 4'-Fluorouridine metabolite at 3 mg/kg/day, po treated for 7 days by LC-MS/MS analysis; type: ADME, organism-based, Canis lupus familiaris; conditions: in vivo, 168 h, time 7 day
[28] = AUC (0 to t) in fasted Cynomolgus monkey at 11.6 mg/kg, po by LC-MS/MS analysis; type: ADME, organism-based, Macaca fascicularis; conditions: in vivo
[29] = Prodrug conversion in Sprague-Dawley rat assessed as AUC (0 to t) of 4'-Fluorouridine metabolite at 6 mg/kg, po by LC-MS/MS analysis; type: ADME, organism-based; conditions: in vivo
[30] = Stability of compound at pH 6.8 assessed as change in purity at 1 mg/ml incubated for 24 hrs by HPLC analysis; type: physicochemical; conditions: buffer, pH 6.8, 24 h
[31] = Prodrug conversion in Sprague-Dawley rat assessed as 4'-Fluorouridine-NTP metabolite formation in lung at 6 mg/kg, po measured for 0.5 to 24 hrs by LC-MS/MS analysis; type: ADME, organism-based; conditions: in vivo, time 0.5-24 hrs
[32] = tested on: Mammarenavirus choriomeningitidis; test: In vivo antiviral activity against LCMV infected in C57BL/6-Prf1tm1Sdz/J mouse assessed as void of necrosis in spleen at 1 to 5 mg/kg, po qd for 7 days; type: functional, organism-based; conditions: dose 1-5 mg/kg, time 7.0 day
[33] = Stability of compound at pH 6.8 assessed as change in purity at 1 mg/ml incubated for 4 hrs by HPLC analysis; type: physicochemical; conditions: buffer, pH 6.8, 4 h
[34] = Prodrug conversion in Sprague-Dawley rat assessed as 4'-Fluorouridine metabolite formation in heart at 6 mg/kg, po measured for 0.5 to 24 hrs by LC-MS/MS analysis; type: ADME, organism-based; conditions: in vivo, time 0.5-24 hrs
[35] = Prodrug conversion in Beagle dog plasma assessed as parent nucleoside metabolite formation administered orally or intravenously; type: ADME, cell-free, Canis lupus familiaris; conditions: po
[36] = tested on: A549; test: Cytotoxicity against human A549 cells up to 100 uM; type: toxicity, cell-based; conditions: a549, 100 µM
[37] = Aqueous solubility of compound; type: physicochemical; conditions: aqueous medium
[38] = Stability in SGF assessed as compound degradation measured for 24 hrs by HPLC analysis; type: physicochemical; conditions: simulated gastric fluid (SGF), read-out: Drug degradation
[39] = Stability in C57BL/6J mouse plasma administered orally or intravenously; type: ADME, cell-free; conditions: po

CC(C)C(=O)OC[C@@]1(F)O[C@@H](n2ccc(=O)n(COC(=O)c3cccnc3)c2=O)[C@H](OC(=O)C(C)C)[C@@H]1OC(=O)C(C)C
Drug metabolism [1]: metabolite_detected | Activity [2]: Active | Activity [3]: Non-toxic | AUC(0-t) [4]: 11800 ng·h/mL | Cmax [5]: 119 ng/mL | AUCt [6]: 3601 ng·h/mL | Cmax [7]: 329 ng/mL | Activity [8]: -4.2% | Cmax [9]: 266 ng/mL | AUCt [10]: 903 ng·h/mL | Cmax [11]: 139 ng/mL | bioavailability [12]: 75.2% | Activity [13]: -0.3% | Drug metabolism [14]: metabolite_notdetected | Activity [15]: -0.1% | Stability [16]: Unstable | Drug metabolism [17]: metabolite_notdetected | Activity [18]: Dose-dependent-effect | Activity [19]: Non-toxic | Drug metabolism [20]: metabolite_detected | AUCt [21]: 7586 ng·h/mL | AUCt [22]: 257 ng·h/mL | Activity [23]: Active | Activity [24]: Dose-dependent-effect | Drug metabolism [25]: metabolite_detected | Activity [26]: Non-toxic | AUCt [27]: 1249 ng·h/mL | AUC(0-t) [28]: 15100 ng·h/mL | AUCt [29]: 3023 ng·h/mL | Activity [30]: -0.6% | Drug metabolism [31]: metabolite_detected | Activity [32]: Active | Activity [33]: -0.1% | Drug metabolism [34]: metabolite_detected | Drug metabolism [35]: metabolite_detected | Activity [36]: Non-toxic | solubility [37]: 10 µg/mL (≈ 16.5 µM) | degraded at 24 h [38]: < 5% | Stability [39]: Unstable
